Experimental data from patent EP2605769B1, “BENZOQUINONE DERIVATIVES FOR THE TREATMENT OF MITCHONDRIAL EYE DISEASES” (Santhera Pharmaceuticals (Schweiz) AG, priority 2010, dated 2012).

What was measured:
[1] = tested on: Primary human fibroblasts C4 (GM04545, Coriell); test: Lipid peroxidation assay (BODIPY 581/591-C11); format: cell-based; conditions: 10 µM test compound, 72 hours
Text: Lipid peroxidation is a well defined mechanism of cellular damage in both animals and plants that occurs during aging and in some disease states. This process proceeds by a free radical chain reaction mechanism. […] If not terminated fast enough, lipid peroxidation damages cellular membranes, affect membrane fluidity and also mitochondrial function. In addition, end products of lipid peroxidation may be mutagenic and carcinogenic. For instance, the reactive end product of lipid peroxidation, malondialdehyde, directly causes DNA damage. Experimental Procedure: […] BODIPY 581/591-C11 can be used to measure antioxidant activity in lipid environments by exploiting its loss of fluorescence upon interaction with peroxyl radicals. […] After that, 0.1 ml freshly prepared dye solution (HBSS, containing BODIPY dye 1:1000 from stock solution) was added and cells were returned to the incubator for 30 min. After 2 brief washes with 0.1 ml warmed PBS fluorescence was measured in 50 µl PBS. Fluorescence for 4 individual areas per well were individually quantified at two wavelengths (Ex1: 490, Em1: 600; Ex2: 490, Em2: 530, bandwith 10nm, 50 flashes, 400Hz frequency, 20 µs integration time).

[2] = tested on: RGC-5 cells; test: Cellular viability of RGC-like cells challenged with rotenone (cellular ATP content); format: cell-based; conditions: 1 day-preincubation, 100 µM
Text: Mitochondrial impairment directly influences cellular survival. Especially cells and tissues that display high level of energy consumption, such as neurons are especially vulnerable. Consequently, these cells and tissues are likely to be the most responsive to a strategy that targets mitochondrial function. We addressed this possibility by assessing the viability of the retinal ganglion cell line RGC-5, challenged with the mitochondrial complex I inhibitor rotenone, in the absence or presence of compounds.
Experimental procedure: RGC-5 cells were cultured under ambient conditions (37 °C, 5% CO2, 90% humidity) in DMEM (1g/l glucose; 10% fetal bovine serum (FBS), Penicillin-Streptomycin-Glutamine (PSG)). RGC-5 cells will be seeded in DMEM (1g/l glucose; 2% FBS) into BD Falcon™ cell culture plates. Before rotenone- induced complex I inhibition, the cells were pre-treated with Compound IA or vehicle. For Compound IA co-treatment with rotenone, new compound was added together with rotenone-containing cell culture media. After the rotenone exposure, the media was exchanged and replaced by Hanks' BSS for the 1 day post-incubation. The post-treatment media contained Compound IA or vehicle only. As measure of cell viability, cellular ATP content was analyzed using luminescence from ATP-dependent enzymatic oxidation of luciferin by luciferase. RGC-5 cells were be washed with PBS and lysed in lysis buffer (4 mM EDTA, 0.2% Triton X-100) at room temperature. In 96-well plates, ATP measurement buffer (25 mM HEPES pH 7.25, 300 µM D-luciferin, 5 µg/ml firefly luciferase, 75 µM DTT, 6.25 mM MgCl2, 625 µM EDTA and 1 mg/ml BSA) was combined with lysate to start the reaction. Luminescence was quantified immediately using a multimode plate reader (Tecan M1000, Tecan iControl 1.6 software; Tecan Austria GmbH, Grödig, Austria). Effects on cell viability were defined as the percentage of compound-mediated change in cell viability relative to rotenone-induced reduction in cell viability. Data are presented as mean ± SEM. Paired Student's t-test was used to compare non-normalized data. Statistical significance was set at p≤0.05(*), p≤0.01(**) and p≤0.001(***).

For `COC1=C(OC)C(=O)C(CCCCCCCCCCO)=C(C)C1=O` [Compound ID], which Lipid peroxidation [1] is on record?
Its Lipid peroxidation is 110%.

What does the source list for `CCCn1cnc2c1c(=O)n(CCCCC(C)=O)c(=O)n2C` [propentophylline, reference compound]?
cell viability, compound-mediated change relative to rotenone-induced reduction, mean (Fig. 2) [2]: not significant; cell viability, compound-mediated change relative to rotenone-induced reduction, mean (Fig. 2) ([2]; listed as PP): 2.2%; cell viability, compound-mediated change relative to rotenone-induced reduction, mean (Fig. 2) ([2]; listed as propentophilline): no significant protective activity
